# Activity calls are given as the source filed them. No cut-off for these calls is given here.
# Experiments:
# Albumin [1] = target: T1, Albumin (Homo sapiens, UniProt P02768); experiment: Binding affinity to human serum albumin assessed as quenching constant by fluorescence emission spectroscopy; type: ADME, cell-free
# Calf thymus DNA [2] = experiment: Binding affinity to calf thymus DNA assessed as quenching in emission band at 600 nm by ethidium bromide competitive displacement assay; type: nucleic-acid assay; settings: Bos taurus
# Albumin [3] = target: T2, Albumin (Bos taurus, UniProt P02769); experiment: Binding affinity to bovine serum albumin assessed as decrease in fluorescence emission intensity at 350 nm at 0-12 uM by fluorescence emission spectrum analysis; type: ADME, cell-free; settings: cattle, 0.35 µM
# T2 sequence (P02769 whole entry): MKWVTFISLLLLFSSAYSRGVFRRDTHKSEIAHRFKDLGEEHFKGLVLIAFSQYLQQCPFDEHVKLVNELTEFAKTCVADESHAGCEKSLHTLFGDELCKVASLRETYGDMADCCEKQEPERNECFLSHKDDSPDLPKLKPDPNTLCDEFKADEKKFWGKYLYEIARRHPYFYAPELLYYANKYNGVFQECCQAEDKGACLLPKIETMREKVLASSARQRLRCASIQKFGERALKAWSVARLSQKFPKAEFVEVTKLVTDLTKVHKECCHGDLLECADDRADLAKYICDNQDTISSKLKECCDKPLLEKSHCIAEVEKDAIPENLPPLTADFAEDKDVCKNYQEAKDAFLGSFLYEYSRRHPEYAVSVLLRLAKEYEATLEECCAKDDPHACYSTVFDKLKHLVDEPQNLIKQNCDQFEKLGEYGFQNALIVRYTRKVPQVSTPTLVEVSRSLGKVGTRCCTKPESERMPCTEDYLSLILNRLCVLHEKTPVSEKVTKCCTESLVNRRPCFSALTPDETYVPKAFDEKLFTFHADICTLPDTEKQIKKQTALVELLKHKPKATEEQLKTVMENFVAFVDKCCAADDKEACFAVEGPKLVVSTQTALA
# DNA [4] = experiment: Binding affinity to human DNA in blood assessed as DNA intercalation by measuring hypochromic shift at 398 nm at 20 uM by UV-Vis spectral titration analysis; type: tissue-based
# SW-620 = experiment: Antitumor activity against human SW620 cells assessed as cell growth inhibition at 10 uM incubated for 48 hrs by sulforhodamine B assay; settings: SW-620, 48 h, read-out: GI
# Albumin [5] = target: T2, Albumin; experiment: Binding affinity to bovine serum albumin assessed as Stern-Volmer quenching constant at 308K by fluorescence emission spectrum analysis; type: ADME, cell-free; settings: cattle
# Albumin [6] = target: T2, Albumin; experiment: Binding affinity to bovine serum albumin assessed as binding constant at 318K by fluorescence emission spectrum analysis; type: ADME, cell-free; settings: cattle
# HCT-116 = experiment: Antitumor activity against human HCT116 cells assessed as cell growth inhibition at 10 uM incubated for 48 hrs by sulforhodamine B assay; type: functional; settings: read-out: GI
# DNA [7] = experiment: Binding affinity to human DNA in blood assessed as binding constant by fluorescence emission spectrum analysis; type: tissue-based
# Albumin [8] = target: T2, Albumin; experiment: Binding affinity to bovine serum albumin assessed as binding constant by UV-vis absorption spectral titration analysis based Benesi-Hildebrand equation analysis; type: ADME, cell-free; settings: cattle
# HEK293 [9] = experiment: Cytotoxicity against human HEK293 assessed as reduction in cell viability at 0.01 uM after 48 hrs by MTT assay; type: cell-based; settings: hek293, 48 h
# Calf thymus DNA [10] = experiment: Binding affinity to calf thymus DNA assessed as DNA intercalation by measuring decrease in intensity of CD band at 250 nm at 1 uM by CD spectroscopy; type: nucleic-acid assay; settings: Bos taurus
# LOX IMVI = experiment: Antitumor activity against human LOX IMVI cells assessed as cell growth inhibition at 10 uM incubated for 48 hrs by sulforhodamine B assay; type: functional; settings: read-out: GI
# NCI-H460 = experiment: Antitumor activity against human NCI-H460 assessed as cell growth inhibition at 10 uM incubated for 48 hrs by sulforhodamine B assay; type: functional; settings: read-out: GI
# Albumin [11] = target: T2, Albumin; experiment: Binding affinity to bovine serum albumin assessed as binding constant at 298K by fluorescence emission spectrum analysis; type: ADME, cell-free; settings: cattle
# SNB-19 = experiment: Antitumor activity against human SNB-19 cells assessed as cell growth inhibition at 10 uM incubated for 48 hrs by sulforhodamine B assay; type: functional; settings: read-out: GI
# PC-3 = experiment: Antitumor activity against human PC-3 cells assessed as cell growth inhibition at 10 uM incubated for 48 hrs by sulforhodamine B assay; type: functional; settings: read-out: GI
# Calf thymus DNA [12] = experiment: Binding affinity to calf thymus DNA assessed as hypochromic effect by measuring decrease in intensity of absorption band at 398 nm at 20 uM by UV-Vis absorption spectrophotometric method; settings: Bos taurus
# MCF7 = experiment: Antitumor activity against human MCF7 cells assessed as cell growth inhibition at 10 uM incubated for 48 hrs by sulforhodamine B assay; type: functional; settings: read-out: GI
# CCRF-CEM = experiment: Antitumor activity against human CCRF-CEM cells assessed as cell growth inhibition at 10 uM incubated for 48 hrs by sulforhodamine B assay; type: functional; settings: read-out: GI
# HEK293 [13] = experiment: Cytotoxicity against human HEK293 assessed as reduction in cell viability at 0.1 uM after 48 hrs by MTT assay; type: cell-based; settings: hek293, 48 h
# Albumin [14] = target: T2, Albumin; experiment: Binding affinity to bovine serum albumin assessed as Stern-Volmer quenching constant at 318K by fluorescence emission spectrum analysis; type: ADME, cell-free; settings: cattle
# Albumin [15] = target: T1, Albumin; experiment: Binding affinity to human serum albumin assessed as appearance of new absorption band at 400 nm at 0-7 uM by UV-Vis absorption spectroscopy; type: ADME, cell-free; settings: 0.4 µM
# Albumin [16] = target: T2, Albumin; experiment: Binding affinity to bovine serum albumin assessed as hydrogen bonding interaction by measuring change in enthalpy at 298K by thermodynamic based analysis; type: ADME, cell-free; settings: cattle
# [17] = Ratio of Kb for human DNA in blood to Kb for calf thymus DNA
# Malme-3M = experiment: Antitumor activity against human MALME-3M cells assessed as cell growth inhibition at 10 uM incubated for 48 hrs by sulforhodamine B assay; type: functional; settings: read-out: GI
# SR = experiment: Antitumor activity against human SR cells assessed as cell growth inhibition at 10 uM incubated for 48 hrs by sulforhodamine B assay; type: functional; settings: read-out: GI
# HEK293 [18] = experiment: Cytotoxicity against human HEK293 assessed as reduction in cell viability at 1 uM after 48 hrs by MTT assay; type: cell-based; settings: hek293, 48 h
# U-251 = experiment: Antitumor activity against human U251 cells assessed as cell growth inhibition at 10 uM incubated for 48 hrs by sulforhodamine B assay; type: functional; settings: read-out: GI
# SNB-75 = experiment: Antitumor activity against human SNB-75 cells assessed as cell growth inhibition at 10 uM incubated for 48 hrs by sulforhodamine B assay; type: functional; settings: read-out: GI
# MDA-MB-435 = experiment: Antitumor activity against human MDA-MB-435 cells assessed as cell growth inhibition at 10 uM incubated for 48 hrs by sulforhodamine B assay; type: functional; settings: read-out: GI
# RXF 393 = experiment: Antitumor activity against human RXF 393 cells assessed as cell growth inhibition at 10 uM incubated for 48 hrs by sulforhodamine B assay; type: functional; settings: read-out: GI
# NCI-H23 = experiment: Antitumor activity against human NCI-H23 cells assessed as cell growth inhibition at 10 uM incubated for 48 hrs by sulforhodamine B assay; type: functional; settings: read-out: GI
# A549 [19] = experiment: Cytotoxicity against human A549/ATCC assessed as reduction in cell viability at 10 uM after 48 hrs by MTT assay; type: functional
# Hs-578T = experiment: Antitumor activity against human HS 578T cells assessed as cell growth inhibition at 10 uM incubated for 48 hrs by sulforhodamine B assay; type: functional; settings: read-out: GI
# HEK293 [20] = experiment: Cytotoxicity against human HEK293 assessed as reduction in cell viability at 10 uM after 48 hrs by MTT assay; type: cell-based; settings: hek293, 48 h
# DNA [21] = experiment: Binding affinity to human DNA in blood assessed as Stern-Volmer quenching constant by fluorescence emission spectrum analysis; type: tissue-based
# OVCAR-4 = experiment: Antitumor activity against human OVCAR-4 cells assessed as cell growth inhibition at 10 uM incubated for 48 hrs by sulforhodamine B assay; type: functional; settings: read-out: GI
# A549 [22] = experiment: Cytotoxicity against human A549/ATCC assessed as reduction in cell viability at 0.1 uM after 48 hrs by MTT assay; type: functional
# NCI/ADR-RES = experiment: Antitumor activity against human NCI/ADR-RES cells assessed as cell growth inhibition at 10 uM incubated for 48 hrs by sulforhodamine B assay; type: functional; settings: read-out: GI
# Albumin [23] = target: T1, Albumin; experiment: Binding affinity to human serum albumin assessed as binding constant by UV-Vis absorption spectroscopy; type: ADME, cell-free
# SF-295 = experiment: Antitumor activity against human SF295 cells assessed as cell growth inhibition at 10 uM incubated for 48 hrs by sulforhodamine B assay; type: functional; settings: read-out: GI
# KM12 = experiment: Antitumor activity against human KM12 cells assessed as cell growth inhibition at 10 uM incubated for 48 hrs by sulforhodamine B assay; type: functional; settings: read-out: GI
# T1 sequence (P02768 whole entry): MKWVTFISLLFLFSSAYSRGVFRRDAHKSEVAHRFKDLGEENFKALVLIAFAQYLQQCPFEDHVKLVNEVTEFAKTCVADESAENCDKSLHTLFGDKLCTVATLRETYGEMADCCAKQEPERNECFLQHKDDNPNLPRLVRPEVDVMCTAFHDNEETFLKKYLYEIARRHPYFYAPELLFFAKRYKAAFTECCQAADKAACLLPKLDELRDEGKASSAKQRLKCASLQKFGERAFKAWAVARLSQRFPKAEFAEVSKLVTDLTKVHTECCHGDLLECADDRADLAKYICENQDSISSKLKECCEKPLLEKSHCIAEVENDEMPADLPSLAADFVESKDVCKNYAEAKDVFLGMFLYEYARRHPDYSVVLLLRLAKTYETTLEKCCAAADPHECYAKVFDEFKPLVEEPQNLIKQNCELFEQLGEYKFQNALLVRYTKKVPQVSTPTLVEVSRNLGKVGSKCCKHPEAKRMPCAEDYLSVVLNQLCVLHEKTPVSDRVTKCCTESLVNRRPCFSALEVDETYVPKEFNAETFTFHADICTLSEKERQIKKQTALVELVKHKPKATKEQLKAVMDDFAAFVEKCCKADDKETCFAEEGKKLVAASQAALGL
smiles,measurement,setting,value
O=C1NC(=O)/C(=C/c2ccc(-c3nc4c5ccccc5c5ccccc5c4[nH]3)cc2)S1,Kq,Albumin [1],3.01 10^14/M/s
same,Activity,Calf thymus DNA [2],Active
same,Activity,Albumin [3],Active
same,Activity,DNA [4],Active
same,inhibition of growth at 10 µM,SW-620,22.8%
same,KSV,Albumin [5],8.15 10^5/M
same,Kb,Albumin [6],2.97 10^6/M
same,inhibition of growth at 10 µM,HCT-116,65.5%
same,Kb,DNA [7],7.09 10^5/M
same,Kb,Albumin [8],6.57 10^4/M
same,Activity,HEK293 [9],4%
same,Activity,Calf thymus DNA [10],Active
same,inhibition of growth at 10 µM,LOX IMVI,36.7%
same,inhibition of growth at 10 µM,NCI-H460,19.7%
same,Kb,Albumin [11],4.06 10^6/M
same,inhibition of growth at 10 µM,SNB-19,18.1%
same,inhibition of growth at 10 µM,PC-3,51.9%
same,Activity,Calf thymus DNA [12],Active
same,inhibition of growth at 10 µM,MCF7,46.1%
same,inhibition of growth at 10 µM,CCRF-CEM,65.2%
same,Activity,HEK293 [13],5%
same,KSV,Albumin [14],3.51 10^5/M
same,Activity,Albumin [15],Active
same,deltaH,Albumin [16],-2.92 kcal/mol
same,Ratio,[17],2
same,inhibition of growth at 10 µM,Malme-3M,14.8%
same,inhibition of growth at 10 µM,SR,79.2%
same,Activity,HEK293 [18],6%
same,inhibition of growth at 10 µM,U-251,30.3%
same,inhibition of growth at 10 µM,SNB-75,< 10%
same,inhibition of growth at 10 µM,MDA-MB-435,67.4%
same,inhibition of growth at 10 µM,RXF 393,19.1%
same,inhibition of growth at 10 µM,NCI-H23,29%
same,Activity,A549 [19],78%
same,inhibition of growth at 10 µM,Hs-578T,17.6%
same,Activity,HEK293 [20],9%
same,KSV,DNA [21],3.46 10^3/M
same,inhibition of growth at 10 µM,OVCAR-4,< 10%
same,Activity,A549 [22],59%
same,inhibition of growth at 10 µM,NCI/ADR-RES,< 10%
same,Kb,Albumin [23],9.35 10^4/M
same,inhibition of growth at 10 µM,SF-295,16.3%
same,inhibition of growth at 10 µM,KM12,43.9%
